According to US11976072B2, “Diacylglycerol kinase modulating compounds” (priority 2021, dated 2024):
Where two headings read alike, the source gives them in different places.

Key:
human DGKα = human DGKα (Homo sapiens, UniProt P23743); test: DGKα Biochemical Activity Assay (ADP-Glo); details: recombinant DGKα 1 nM, 100 μM ATP, 18:1 DAG/POPS/octylglucoside micelles, 1 hour at 25° C.; geometric mean; read-out: HTBS DGKa 1X ATP KM IC50;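 note: luminescent detection of ADP produced as DGKα phosphorylates DAG to phosphatidic acid, IC50 from four-parameter nonlinear curve fit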
[1] = tested on: Jurkat NFκB-luciferase cells; test: Jurkat NFκB-Luciferase Assay; format: cell-based; details: Homo sapiens
Description: The day after, the excess antibody was washed out five times with 100 ul/well of assay medium (RPMI supplemented with 10% fetal bovine serum) using a Biotek EL406 instrument and leaving 20 ul of residual volume in each well. Jurkat NFκB-luciferase cells (Promega #) were harvested and diluted to 1 million cells/ml in assay medium. […] Thirty microliters of medium containing the Jurkat NFκB-luciferase cells were then dispensed using a Biotek MicroFlo instrument in each well of the compound-containing plate. […] Forty microliters of One-Glo Ex (Promega) was then added to the assay mixture and luciferase activity was read on a Envision plate reader 7 minutes later.

[2] = Jurkat NFκB-luciferase cells activated with anti-CD3 antibody (OKT3), 2.5 hrs at 37° C., geometric mean, read-out: DGK NFKb Luciferase EC50

Sequence of human DGKα (P23743 whole entry): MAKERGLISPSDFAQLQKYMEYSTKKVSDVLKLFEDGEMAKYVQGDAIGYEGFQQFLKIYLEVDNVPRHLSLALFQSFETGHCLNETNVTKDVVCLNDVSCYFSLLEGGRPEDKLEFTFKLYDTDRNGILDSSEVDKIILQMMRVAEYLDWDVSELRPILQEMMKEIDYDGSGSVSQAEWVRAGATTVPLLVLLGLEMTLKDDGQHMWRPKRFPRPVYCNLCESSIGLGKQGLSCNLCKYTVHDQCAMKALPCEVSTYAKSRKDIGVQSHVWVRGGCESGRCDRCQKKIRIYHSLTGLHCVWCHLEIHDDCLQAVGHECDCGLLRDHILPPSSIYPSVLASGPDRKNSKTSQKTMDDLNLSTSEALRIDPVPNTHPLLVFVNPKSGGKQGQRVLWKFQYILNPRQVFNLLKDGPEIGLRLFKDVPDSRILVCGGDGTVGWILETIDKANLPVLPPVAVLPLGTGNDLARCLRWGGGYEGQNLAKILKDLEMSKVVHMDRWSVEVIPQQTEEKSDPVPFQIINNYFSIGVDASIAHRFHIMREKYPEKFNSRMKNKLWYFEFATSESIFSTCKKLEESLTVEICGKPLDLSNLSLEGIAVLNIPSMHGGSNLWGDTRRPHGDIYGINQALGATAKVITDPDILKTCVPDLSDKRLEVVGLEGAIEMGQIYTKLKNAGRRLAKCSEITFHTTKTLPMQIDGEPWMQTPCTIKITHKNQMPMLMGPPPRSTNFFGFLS

Row | Structure (SMILES) | IC50 (human DGKα) [nM] | EC50 [1, 2] [nM] | EC50 ([1]; Jurkat, […], read-out: DGK NFKb Luciferase EC50 (nM)) [nM]
1 | Cc1nnc2nc(N3c4cccc(C#CC5(C(F)(F)F)CC5)c4CCC3C)c3c(F)cccc3n12 (stereo not shown) [Example 58, 6-fluoro-1-methyl-5-(2-methyl-5-((1-(trifluoromethyl)cyclopropyl)ethynyl)-3,4-dihydroquinolin-1(2H)-yl)-[1,2,4]triazolo[4,3-a]quinazoline] | 78.3 | 3.67 | 
2 | Cc1nnc2nc(N3CCCc4c3ccnc4C#CC3(C)CC3)c3c(F)c(F)ccc3n12 [Example 85, 6,7-difluoro-1-methyl-5-(5-((1-methylcyclopropyl)ethynyl)-3,4-dihydro-1,6-naphthyridin-1(2H)-yl)-[1,2,4]triazolo[4,3-a]quinazoline] | 7.21 | 2.24 | 
3 | OC1(C#Cc2cccc3c2CCCN3c2nc3nncn3c3cccc(F)c23)CCCCC1 [Example 202, 1-((1-(6-Fluoro-[1,2,4]triazolo[4,3-a]quinazolin-5-yl)-1,2,3,4-tetrahydroquinolin-5-yl)ethynyl)cyclohexan-1-ol] | 3.88 |  | 2.04
4 | Cc1nnc2nc(N3CCCc4c(C#CC5CCC5)cccc43)c3cc(F)ccc3n12 [Example 30, 5-(5-(cyclobutylethynyl)-3,4-dihydroquinolin-1(2H)-yl)-7-fluoro-1-methyl-[1,2,4]triazolo[4,3-a]quinazoline] | 14.7 | 0.163 | 
5 | Cc1nnc2nc(N3CCOCc4c(C#CC5(C)COC5)cccc43)c3c(F)cccc3n12 [Example 194, 1-(6-Fluoro-1-methyl-[1,2,4]triazolo[4,3-a]quinazolin-5-yl)-6-[2-(3-methyloxetan-3-yl)ethynyl]-3,5-dihydro-2H-4,1-benzoxazepine] | 0.773 | 1.68 | 
6 | CC(C)(C#Cc1cccc2c1COCCN2c1nc2nncn2c2ccc(F)c(F)c12)C(F)(F)F [Example 204, 1-(6,7-Difluoro-[1,2,4]triazolo[4,3-a]quinazolin-5-yl)-6-(4,4,4-trifluoro-3,3-dimethyl-but-1-ynyl)-3,5-dihydro-2H-4,1-benzoxazepine] | 3.83 | 0.121 | 
7 | Cc1cnc(C(C)(C)C#Cc2cccc3c2COCCN3c2nc3nnc(C)n3c3ccc(F)c(F)c23)o1 [Example 66, 1-(6,7-difluoro-1-methyl-[1,2,4]triazolo[4,3-a]quinazolin-5-yl)-6-(3-methyl-3-(5-methyloxazol-2-yl)but-1-yn-1-yl)-1,2,3,5-tetrahydrobenzo[e][1,4]oxazepine] | 12.8 | 6.78 | 
8 | Cc1nnc2nc(N3CCOCc4c(C#CC(C)(C)C#N)cccc43)c3c(F)cccc3n12 [Example 189, 4-[1-(6-Fluoro-1-methyl-[1,2,4]triazolo[4,3-a]quinazolin-5-yl)-3,5-dihydro-2H-4,1-benzoxazepin-6-yl]-2,2-dimethyl-but-3-ynenitrile] | 1.84 | 3.44 | 
9 | CC1(C#Cc2cc(F)cc(N(CC(F)F)c3nc4nncn4c4c(Cl)cc(F)cc34)c2)CC1 [Example 49, 9-chloro-N-(2,2-difluoroethyl)-7-fluoro-N-[3-fluoro-5-[2-(1-methylcyclopropyl)ethynyl]phenyl]-[1,2,4]triazolo[4,3-a]quinazolin-5-amine] | 12.4 | 1.36 | 
10 | Cc1nnc2nc(N(CC(F)F)c3ccnc(C#CC4(C)CC4)c3)c3c(F)c(F)ccc3n12 [Example 91, N-(2,2-difluoroethyl)-6,7-difluoro-1-methyl-N-(2-((1-methylcyclopropyl)ethynyl)pyridin-4-yl)-[1,2,4]triazolo[4,3-a]quinazolin-5-amine] | 3.43 | 3.83 | 
11 | Cc1nnc2nc(N3CCCc4c(C#CC5(C)CC5)cncc43)c3c(F)c(F)ccc3n12 [Example 83, 6,7-difluoro-1-methyl-5-(5-((1-methylcyclopropyl)ethynyl)-3,4-dihydro-1,7-naphthyridin-1(2H)-yl)-[1,2,4]triazolo[4,3-a]quinazoline] | 8.49 | 1.21 | 
12 | Cc1nnc2nc(N3CCCCc4c(C#CC5CC5)cncc43)c3c(F)c(F)ccc3n12 [Example 1, 5-(6-(cyclopropylethynyl)-2,3,4,5-tetrahydro-1H-pyrido[3,4-b]azepin-1-yl)-6,7-difluoro-1-methyl-[1,2,4]triazolo[4,3-a]quinazoline] | 15.1 | 0.897 | 
13 | Cc1nnc2nc(N3CCCc4c(C#CC5(O)CCC6(CC5)CC6)cccc43)c3c(F)cccc3n12 [Example 197] | 11 | 1.38 | 
14 | Cc1nnc2nc(N3CCN(C)Cc4c(C#CC(C)(C)C(F)(F)F)cccc43)c3c(F)c(F)ccc3n12 [Example 168, 6,7-difluoro-1-methyl-5-[4-methyl-6-(4,4,4-trifluoro-3,3-dimethyl-but-1-ynyl)-3,5-dihydro-2H-1,4-benzodiazepin-1-yl]-[1,2,4]triazolo[4,3-a]quinazoline] | 10.4 | 5.41 | 
15 | Cc1nnc2nc(N3CCCc4c(C#CC5(C)COC5)cccc43)c3c(F)cccc3n12 [Example 27, 6-fluoro-1-methyl-5-(5-((3-methyloxetan-3-yl)ethynyl)-3,4-dihydroquinolin-1(2H)-yl)-[1,2,4]triazolo[4,3-a]quinazoline] | 15.1 | 3.52 | 
16 | COc1cncc(C#Cc2cccc3c2CCCN3c2nc3nnc(C)n3c3ccc(F)cc23)c1 [Example 219] | 11.2 | 1.3 | 
17 | Cc1nnc2nc(N(CC(F)F)c3cc(F)cc(C#CC4(C)COC4)c3)c3c(F)cccc3n12 [Example 22, N-(2,2-difluoroethyl)-6-fluoro-N-(3-fluoro-5-((3-methyloxetan-3-yl)ethynyl)phenyl)-1-methyl-[1,2,4]triazolo[4,3-a]quinazolin-5-amine] | 18.9 | 10.1 | 
18 | Cc1nnc2nc(N3CCCCc4c(C#CC(C)(C)NC(=O)C5(C(F)(F)F)CC5)cccc43)c3c(F)c(F)ccc3n12 [Example 176] | 12.4 | 6.67 | 
19 | Cc1nnc2nc(N3CCCc4c(C#Cc5ccc(C#N)nc5)cccc43)c3c(F)cccc3n12 [Example 213, 5-((1-(6-fluoro-1-methyl-[1,2,4]triazolo[4,3-a]quinazolin-5-yl)-1,2,3,4-tetrahydroquinolin-5-yl)ethynyl)picolinonitrile] | 10 | 1.28 | 
20 | Cc1nnc2nc(N3CCOCc4c3ccnc4C#CC(C)(C)C(F)(F)F)c3cc(F)ccc3n12 [Example 134, 1-(7-fluoro-1-methyl-[1,2,4]triazolo[4,3-a]quinazolin-5-yl)-6-(4,4,4-trifluoro-3,3-dimethylbut-1-yn-1-yl)-1,2,3,5-tetrahydropyrido[4,3-e][1,4]oxazepane] | 9.88 | 8.21 | 
21 | Cc1nnc2nc(N3CCCc4c(C#CC5(C(C)(F)F)CC5)cncc43)c3c(F)c(F)ccc3n12 [Example 12, 5-(5-((1-(1,1-difluoroethyl)cyclopropyl)ethynyl)-3,4-dihydro-1,7-naphthyridin-1(2H)-yl)-6,7-difluoro-1-methyl-[1,2,4]triazolo[4,3-a]quinazoline] | 37.3 | 1.85 | 
22 | FC(F)(F)C1(C#Cc2cccc3c2CCCN3c2nc3nncn3c3ccccc23)CC1 [Example 175, 5-[5-[2-[1-(trifluoromethyl)cyclopropyl]ethynyl]-3,4-dihydro-2H-quinolin-1-yl]-[1,2,4]triazolo[4,3-a]quinazoline] | 110 | 1.74 | 
23 | Cc1nnc2nc(N(CC(F)F)c3cc(F)cc(C#CC4(C)COC4)c3)c3cc(F)ccc3n12 [Example 24, N-(2,2-difluoroethyl)-7-fluoro-N-(3-fluoro-5-((3-methyloxetan-3-yl)ethynyl)phenyl)-1-methyl-[1,2,4]triazolo[4,3-a]quinazolin-5-amine] | 15.1 | 4.7 | 
24 | Cc1nnc2nc(N(CC(F)F)c3ccnc(C#CC4(C(F)(F)F)CC4)c3)c3c(F)c(F)ccc3n12 [Example 92, N-(2,2-difluoroethyl)-6,7-difluoro-1-methyl-N-(2-((1-(trifluoromethyl)cyclopropyl)ethynyl)pyridin-4-yl)-[1,2,4]triazolo[4,3-a]quinazolin-5-amine] | 13.8 | 5.3 | 
25 | CC(C)(O)C#Cc1cccc2c1COCCN2c1nc2nncn2c2c(F)ccc(F)c12 [Example 111] | 6.5 | 45.8 | 
26 | Cc1nnc2nc(N3CCCc4c(C#CC5(C(F)(F)F)CC5)cncc43)c3c(F)c(F)ccc3n12 [Example 88, 6,7-difluoro-1-methyl-5-(5-((1-(trifluoromethyl)cyclopropyl)ethynyl)-3,4-dihydro-1,7-naphthyridin-1(2H)-yl)-[1,2,4]triazolo[4,3-a]quinazoline] | 10.6 | 1.14 | 
27 | CC(C)(O)C#Cc1cccc2c1CCCN2c1nc2nncn2c2c(F)cc(F)cc12 [Example 120] | 4.99 | 12.3 | 
28 | Cc1nnc2nc(N3CCOCc4c3ccnc4C#CC(C)(C)C(F)F)c3c(F)cccc3n12 [Example 136, 6-(4,4-difluoro-3,3-dimethylbut-1-yn-1-yl)-1-(6-fluoro-1-methyl-[1,2,4]triazolo[4,3-a]quinazolin-5-yl)-1,2,3,5-tetrahydropyrido[4,3-e][1,4]oxazepine] | 11.1 | 13.9 | 
29 | CC1(C#Cc2cccc3c2COCCN3c2nc3nnc(N)n3c3cccc(F)c23)CC1 [Example 127] | 8.42 | 2.02 | 
